This is an account of results in patent US11467160B2, “Method of therapy selection for patient suffering from glioblastoma” (INSERM (Institut National de la Santé et de la Recherche …, priority 2017, dated 2022).

Structures are written as SMILES. “Also recorded” adds a separate entry of the source.

The subject of assay [1] is GBM patients. The conditions noted are these: combined with temozolomide (Stupp 2014); cited from earlier work.
For assay [2], the system named is CD90-expressing parental U251 cells. Kind of assay: Boyden chamber migration assay, parental U251 cells. The class given is cell-based, human. The conditions noted are these: for U251 cell migration: 10 μM inhibitor, 15 minutes pre-incubation, kept during 24-hours Boyden chamber assay. The protocol: (§1) FIG. 3: CD90 signals through SRC, FAK and RhoA molecules and CD90 dependent migration is blocked by dasatinib in vitro and in vivo. Parental (wt), control (shCTR #), CD90-down expressing (shCD90 #, n=3) U251 cells; as well as parental (wt), control (CTR #) and CD90 expressing (CD90 #, n=3) U87 cells were cultured at low cell density, lysed and analyzed by Western-blot for phosphoSRC, SRC, phosphoFAK, FAK and β-actin expression. Protein phosphorylation levels were calculated as described in Materials and Methods part (A). CD90low (black) and CD90high (blank) RNS (n=12, square symbol) and RADH (n=6, circle symbol) cells were analyzed by Western-blot for phosphoSRC, SRC, phosphoFAK, FAK and β-actin expression. Protein phosphorylation levels were calculated in (B). CD90-expressing parental U251 and CD90 #1 U87 cells were tested in a 24-hours Boyden chamber migration assay as described in FIG. 2 in the presence of DMSO (as control), PP2, dasatinib (both SRC inhibitors), Y15 (FAK inhibitor) and Y-27632 (ROCK inhibitor) (C). CD90-expressing parental U251 and CD90 #1 U87 cells were transfected without (siØ), with siRNA GL2 (control) or siRNA RhoA during 48 hours, and tested in a 24-hours Boyden chamber migration assay (D). RhoA expression was tested by Western-blot (D). Migration was given by the number of migrated cells obtained per field (C and D). CD90high RNS (n=4, square symbol) and RADH (n=4, circle symbol) cells were tested in a 24-hours Boyden chamber migration assay in the presence of DMSO or dasatinib (E). Representative fields are shown in (E). CD90 expressing U87 cells were orthotopically implanted in immunocompromised mice brain. One week after injection, mice were fed with control vehicle (n=7) or dasatinib (40 mg/kg/day, n=7) for 20 days. Control and dasatinib-treated mice were sacrificed 28 days after injection. Brains were collected and sections were analyzed after H&E staining (F). (*): p<0.05; (**): p<0.01; (***): p<0.001.
Boyden chamber migration assay—Parental, controls and transfected U251 and U87 cell lines were washed in DMEM, placed in Boyden chambers (10^5 cells/chamber in DMEM) that were placed in DMEM 20% FBS and incubated at 37° C. for 24 hours. After 24 hours, Boyden chambers were washed in PBS and cells were fixed in PBS 0.5% paraformaldehyde. Non-migrated cells inside the chambers were removed and cells were then stained with Giemsa (RAL Diagnostics, Martillac, France). After washes in PBS, pictures of 5 different fields were taken. Migration was given by the mean of number of migrated cells observed per field. […]

Assay [3] concerns U87 CD90 cells. Kind of assay: Boyden chamber migration assay, U87 CD90 cells. The format is cell-based, human. The conditions noted are these: for U87 CD90 cell migration: 10 μM inhibitor, 15 minutes pre-incubation, kept during 24-hours Boyden chamber assay. The protocol:
as §1
Preparation of CD90 knocked-down U251 and CD90 expressing U87 GBM cell lines—U251 cells were transfected with pLKO.1-puro plasmids containing shRNA constructs targeting CD90 mRNA and targeting non-mammalian mRNA (Sigma-Aldrich) using the Lipofectamine 2000 reagent (Life Technologies, St Aubin, France) according to the manufactor's instructions. After one week of culture under the selective antibiotic puromycin used at 10 μg/ml, transfected U251 cells were amplified and then cloned in 96-well plates at 0.1 cell/well. CD90 knocked-down U251 cell lines were expanded and selected for their decreased expression of CD90. U87 cells were transfected with CD90 cDNA (GeneWiz, Sigma-Aldrich) cloned into the pLKO.1-puro plasmid with EcoRI and BamHI enzymes using the Lipofectamine 2000 reagent. […]

Assay [4] concerns primary CD90high GBM lines. As to the kind of experiment: Boyden chamber migration assay, primary CD90high GBM lines (RNS and RADH). The conditions noted are these: CD90high RNS (n=4) and RADH (n=4) cells, 24-hours Boyden chamber assay. The class given is cell-based, human. Here is the method:
FIG. 3: CD90 signals through SRC, FAK and RhoA molecules and CD90 dependent migration is blocked by dasatinib in vitro and in vivo. Parental (wt), control (shCTR #), CD90-down expressing (shCD90 #, n=3) U251 cells; as well as parental (wt), control (CTR #) and CD90 expressing (CD90 #, n=3) U87 cells were cultured at low cell density, lysed and analyzed by Western-blot for phosphoSRC, SRC, phosphoFAK, FAK and β-actin expression. Protein phosphorylation levels were calculated as described in Materials and Methods part (A). CD90low (black) and CD90high (blank) RNS (n=12, square symbol) and RADH (n=6, circle symbol) cells were analyzed by Western-blot for phosphoSRC, SRC, phosphoFAK, FAK and β-actin expression. Protein phosphorylation levels were calculated in (B). […] Brains were collected and sections were analyzed after H&E staining (F). […]
Tumor specimens and cell culture—GBM samples were obtained after informed consent from patients admitted to the neurosurgery department at Rennes University Hospital for surgical resection in accordance with the local ethic committee. […] The extent of surgery was evaluated with an enhanced magnetic resonance imaging (MRI) performed within 24 hours after the resection. […]

In assay [5] the test system is U87 CD90 cells. As to the kind of experiment: Orthotopic xenograft mouse model with U87 CD90 cells. The class given is in vivo, mice. Here is the method:
as §1, with “CD90high RNS (n=4, square symbol) and RADH (n=4, circle symbol) cells were tested in a 24-hours Boyden chamber migration assay in the presence of DMSO or dasatinib (E). Representative fields are shown in (E). CD90 expressing U87 cells were orthotopically implanted in immunocompromised mice brain. One week after injection, mice were fed with control vehicle (n=7) or dasatinib (40 mg/kg/day, n=7) for 20 days. Control and dasatinib-treated mice were sacrificed 28 days after injection.” left out, “(*): p<0.05; (**): p<0.01; (***): p<0.001.” left out
Orthotopic mouse model—Eight-weeks old male Balb/c NOD-SCID mice (Janvier, Saint Berthevin, France) were housed in an animal care unit authorized by the French Ministries of Agriculture and Research (Biosit, Rennes, France—Agreement No. B35-238-40). […] Mice were daily clinically monitored and sacrificed 28 days after implantation. […] Tumor burden was compared in the different groups of mice and analyzed using ImageJ software. […]
To evaluate the CD90-dependent effects of dasatinib in vivo, U87 CD90 cells were used in an orthotopic xenograft mouse model. […] Mice were analyzed using MRI 28 days post-injection and were sacrificed. […]

The test system of the next assay is CD90high RNS cells. Kind of assay: Viability of CD90high RNS cells. The format is cell-based, human.
Assay [6] relates to bevacizumab-treated recurrent GBM patients. The conditions noted are these: phase II trial (Lassman 2015); cited from earlier work.
The subject of the next assay is glioma cell invasion. The conditions noted are these: preclinical phase; cited from earlier work.
Another assay concerns recurrent GBM patients. The conditions noted are these: Phase II, with temozolomide (Groves 2002); cited from earlier work.
Assay [7] concerns GBM patients. Particulars: phase III clinical trial (Levin 2006); cited from earlier work.
The mark [8] stands for this setting: 1 μM, 24-hours Boyden chamber assay.
Setting [9] is: dasatinib 40 mg/kg fed daily for 20 days from one week post-implantation, 28 days post-injection.

Take `CC(C)[C@H]1C(=O)N[C@@H](CCCN=C(N)N)C(=O)NCC(=O)N[C@@H](CC(=O)O)C(=O)N[C@H](Cc2ccccc2)C(=O)N1C` [Cilengitide]: the “Effects on GBM patients” value with GBM patients [1] is reported as “limited effects”.

Take `CC(C)(C)n1nc(-c2ccc(Cl)cc2)c2c(N)ncnc21` [PP2]: the U251 cell migration entry in [2] is reported as “dramatically reduced”. Further, the “U87 CD90 cell migration” value with U87 CD90 cells [3] is “dramatically reduced”.

With `Cl.Cl.Cl.Cl.Nc1cc(N)c(N)cc1N` [Y15], the “Effect on the migration of U251 cells” value in [2] (setting [8]) is “no or limited effect”. For the same compound, the “Effect on the migration of U87 CD90 cells” value in the assay on U87 CD90 cells [3] (setting [8]) is given as “no or limited effect”.

For `C[C@@H](N)[C@H]1CC[C@H](C(=O)Nc2ccncc2)CC1` [Y27632], the inhibition at 10 µM in [2] (Homo sapiens, U-251, U251 cells, 10 μM, 24-hours Boyden chamber assay, read-out: Migration inhibition (reduction)) is 53%; in the assay on U87 CD90 cells [3] (Homo sapiens, U87 CD90 cells, 10 μM, 24-hours Boyden chamber assay, read-out: Migration inhibition (reduction)), 76%.

Take `Cc1nc(Nc2ncc(C(=O)Nc3c(C)cccc3Cl)s2)cc(N2CCN(CCO)CC2)n1` [dasatinib, N-(2-chloro-6-methylphenyl)-2-[[6-[4-(2-hydroxyethyl)piperazin-1-yl]-2-methylpyrimidin-4-yl]amino]-1,3-thiazole-5-carboxamide]: in [2], the U251 cell migration entry was “dramatically reduced”. Further, in the assay on U87 CD90 cells [3], the “U87 CD90 cell migration” value is recorded as “dramatically reduced”. Moreover, the “Migration of primary CD90high GBM lines” value in [4] is reported as “dramatically reduced”. Besides, the “CD90 tumor migration/invasion properties in vivo” value in the assay on U87 CD90 cells [5] (U87 CD90 orthotopic xenograft, dasatinib 40 mg/kg) is “dramatically reduces; also recorded: blocks; also recorded: inhibits”. Besides, in the assay with U87 CD90 cells [5] (setting [9]), the “Mice with clear encapsulated tumors with regular edges, H&E staining” value was 4 out of 7 and the “Mice with clear encapsulated tumors with regular edges, MRI” value is 3 out of 4. Further, the “Viability of CD90high RNS cells” value in the assay on CD90high RNS cells is recorded as “affects viability”. The “Improvement of bevacizumab-treated recurrent GBM patients” value in assay [6] was “failed to improve”. Besides, the “Inhibiting bevacizumab-induced glioma cell invasion” value in the assay on glioma cell invasion is “promising effect”.

In the case of `CNC(=O)[C@@H](NC(=O)[C@H](CC(C)C)[C@H](O)C(=O)NO)C(C)(C)C` [marimastat], the “Effects on recurrent GBM patients” value in the assay with recurrent GBM patients is “encouraging effects”. In addition, the Patient survival result with GBM patients [7] was “failed to improve”.
